{"source": "paper PMC5598064", "about": "(Cardiovascular Diabetology, 2017)", "key": {"[1]": {"tested_on": "healthy individuals", "conditions": "for concentration-dependent effect on QTcP: in vivo", "excerpt": "(§1) In a randomized, double-blind, 4-period, 4-treatment, cross-over tQTc study, healthy individuals were randomized to one of four treatment sequence groups. […] Serial blood samples for pharmacokinetic analysis were collected on day 4 of each period.\nTo account for the high degree of correlation between heart rate and QT interval, various correction formulae, including Bazett’s formula (QTcB), Fridericia’s formula (QTcF), QT interval corrected for heart rate (QTc) based on linear population-based analysis (QTcP), and QT interval corrected for heart rate based on log-linear population-based analysis (QTcLogP) were applied to obtain a QT interval independent of heart rate."}, "[2]": {"tested_on": "healthy individuals", "conditions": "in vivo, po", "method": "(§2) Participants who were randomized to 75 or 100 mg received their second dose 30 min before consuming the high fat breakfast. Vital sign and 12-lead electrocardiogram (ECG) measurements were collected at screening, at various times throughout the study, and at discharge."}, "[3]": {"tested_on": "healthy individuals", "conditions": "in vivo", "method": "(§3) All doses were administered 1 h before consumption of a standard American Heart Association Step 1 diet (≤30% of calories from fats) or a standard liquid meal on days 8 and 13 (BoostPlus®; Nestlé). […] Vital sign and 12-lead ECG measurements were collected at screening, at various times throughout the study, and at discharge. Multiple blood samples for pharmacokinetic analysis were collected on days 1–2 and 14–15."}, "[4]": {"conditions": "healthy individuals, saxagliptin 5 mg, highest recommended therapeutic dose; cited from earlier work"}, "[5]": {"tested_on": "monkeys", "conditions": "monkey, in vivo"}, "[6]": {"biological_target": "Cardiac hNAV1.5 (Homo sapiens, UniProt Q14524)", "sequence (Q14524 whole entry)": "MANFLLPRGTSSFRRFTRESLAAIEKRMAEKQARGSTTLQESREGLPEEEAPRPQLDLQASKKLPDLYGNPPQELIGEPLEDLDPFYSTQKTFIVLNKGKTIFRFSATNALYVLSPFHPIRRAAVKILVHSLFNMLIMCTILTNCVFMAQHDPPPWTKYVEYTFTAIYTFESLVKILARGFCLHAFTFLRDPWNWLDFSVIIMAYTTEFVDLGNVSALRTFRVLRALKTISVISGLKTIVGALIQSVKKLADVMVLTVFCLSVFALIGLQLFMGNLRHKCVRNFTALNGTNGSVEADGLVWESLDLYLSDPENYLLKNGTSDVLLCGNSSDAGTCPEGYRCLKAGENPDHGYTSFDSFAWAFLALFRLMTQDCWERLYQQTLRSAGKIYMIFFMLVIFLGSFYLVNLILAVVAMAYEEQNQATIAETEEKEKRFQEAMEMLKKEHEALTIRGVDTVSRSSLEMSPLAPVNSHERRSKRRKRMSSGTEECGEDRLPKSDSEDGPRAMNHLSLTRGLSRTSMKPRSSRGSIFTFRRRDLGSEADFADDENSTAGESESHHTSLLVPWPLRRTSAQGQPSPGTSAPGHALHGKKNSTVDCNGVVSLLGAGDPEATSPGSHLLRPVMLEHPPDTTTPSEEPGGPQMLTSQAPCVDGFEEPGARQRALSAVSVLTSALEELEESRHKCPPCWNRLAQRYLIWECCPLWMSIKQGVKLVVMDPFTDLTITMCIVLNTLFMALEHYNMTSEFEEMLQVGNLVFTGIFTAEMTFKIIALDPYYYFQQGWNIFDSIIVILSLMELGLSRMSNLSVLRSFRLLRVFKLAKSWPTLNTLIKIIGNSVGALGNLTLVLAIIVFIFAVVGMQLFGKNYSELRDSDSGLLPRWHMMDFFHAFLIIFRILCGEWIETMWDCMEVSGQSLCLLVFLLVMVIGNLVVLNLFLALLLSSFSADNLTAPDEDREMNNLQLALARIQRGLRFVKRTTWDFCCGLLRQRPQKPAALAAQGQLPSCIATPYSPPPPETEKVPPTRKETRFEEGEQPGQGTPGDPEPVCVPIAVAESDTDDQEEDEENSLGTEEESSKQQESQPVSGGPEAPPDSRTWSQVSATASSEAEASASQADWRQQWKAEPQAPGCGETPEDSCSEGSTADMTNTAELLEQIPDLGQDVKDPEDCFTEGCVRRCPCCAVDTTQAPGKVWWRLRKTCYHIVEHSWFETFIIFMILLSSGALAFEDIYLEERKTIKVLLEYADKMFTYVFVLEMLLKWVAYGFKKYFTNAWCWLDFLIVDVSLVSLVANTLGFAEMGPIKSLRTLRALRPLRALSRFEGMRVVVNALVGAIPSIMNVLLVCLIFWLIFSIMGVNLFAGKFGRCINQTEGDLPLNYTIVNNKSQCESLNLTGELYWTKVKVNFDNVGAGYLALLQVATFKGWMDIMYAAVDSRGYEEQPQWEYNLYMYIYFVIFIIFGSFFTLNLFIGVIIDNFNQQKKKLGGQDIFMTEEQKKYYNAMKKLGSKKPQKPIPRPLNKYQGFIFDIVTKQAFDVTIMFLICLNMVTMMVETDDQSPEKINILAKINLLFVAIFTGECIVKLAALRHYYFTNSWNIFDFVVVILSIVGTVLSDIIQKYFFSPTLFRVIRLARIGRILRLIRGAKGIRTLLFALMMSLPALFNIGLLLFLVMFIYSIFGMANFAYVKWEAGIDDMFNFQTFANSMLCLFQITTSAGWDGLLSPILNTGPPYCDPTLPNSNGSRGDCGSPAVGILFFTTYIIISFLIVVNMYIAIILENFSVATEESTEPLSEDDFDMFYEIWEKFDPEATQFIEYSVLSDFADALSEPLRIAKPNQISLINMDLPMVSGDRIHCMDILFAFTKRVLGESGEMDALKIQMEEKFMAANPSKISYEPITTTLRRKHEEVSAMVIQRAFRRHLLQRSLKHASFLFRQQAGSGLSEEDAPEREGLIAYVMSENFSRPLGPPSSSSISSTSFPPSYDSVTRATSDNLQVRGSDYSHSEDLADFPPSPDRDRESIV", "assay": "Radioligand binding, cardiovascular-related targets"}, "[7]": {"biological_target": "GABA-A α1B2γ2 (Homo sapiens, UniProt P14867+P18507+P47870)", "sequence (P14867 28-456)": "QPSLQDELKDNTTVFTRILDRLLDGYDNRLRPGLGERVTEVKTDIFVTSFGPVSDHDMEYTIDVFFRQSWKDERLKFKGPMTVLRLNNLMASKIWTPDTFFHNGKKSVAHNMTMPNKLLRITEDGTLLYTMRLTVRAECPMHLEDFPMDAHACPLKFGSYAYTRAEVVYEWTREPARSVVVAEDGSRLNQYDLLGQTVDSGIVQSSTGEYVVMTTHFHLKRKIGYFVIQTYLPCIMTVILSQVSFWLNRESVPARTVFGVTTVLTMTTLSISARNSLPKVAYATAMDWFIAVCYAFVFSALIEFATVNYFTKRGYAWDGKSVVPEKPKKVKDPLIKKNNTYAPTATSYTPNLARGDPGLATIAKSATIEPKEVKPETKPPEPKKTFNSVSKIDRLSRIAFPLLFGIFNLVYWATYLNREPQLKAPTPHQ", "sequence (P47870 25-512 limits assumed)": "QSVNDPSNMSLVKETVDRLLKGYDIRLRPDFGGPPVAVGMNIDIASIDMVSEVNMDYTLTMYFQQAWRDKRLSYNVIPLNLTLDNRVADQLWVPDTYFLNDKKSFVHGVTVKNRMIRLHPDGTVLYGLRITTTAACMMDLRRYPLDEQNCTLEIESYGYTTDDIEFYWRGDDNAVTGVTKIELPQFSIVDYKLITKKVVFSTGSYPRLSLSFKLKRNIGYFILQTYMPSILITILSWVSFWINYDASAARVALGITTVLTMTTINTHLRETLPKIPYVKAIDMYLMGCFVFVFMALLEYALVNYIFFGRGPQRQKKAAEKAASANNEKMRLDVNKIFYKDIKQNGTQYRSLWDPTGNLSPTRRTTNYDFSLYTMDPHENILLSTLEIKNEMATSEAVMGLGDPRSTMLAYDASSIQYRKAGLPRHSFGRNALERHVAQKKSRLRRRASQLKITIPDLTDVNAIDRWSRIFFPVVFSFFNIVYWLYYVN", "sequence (P18507 40-475)": "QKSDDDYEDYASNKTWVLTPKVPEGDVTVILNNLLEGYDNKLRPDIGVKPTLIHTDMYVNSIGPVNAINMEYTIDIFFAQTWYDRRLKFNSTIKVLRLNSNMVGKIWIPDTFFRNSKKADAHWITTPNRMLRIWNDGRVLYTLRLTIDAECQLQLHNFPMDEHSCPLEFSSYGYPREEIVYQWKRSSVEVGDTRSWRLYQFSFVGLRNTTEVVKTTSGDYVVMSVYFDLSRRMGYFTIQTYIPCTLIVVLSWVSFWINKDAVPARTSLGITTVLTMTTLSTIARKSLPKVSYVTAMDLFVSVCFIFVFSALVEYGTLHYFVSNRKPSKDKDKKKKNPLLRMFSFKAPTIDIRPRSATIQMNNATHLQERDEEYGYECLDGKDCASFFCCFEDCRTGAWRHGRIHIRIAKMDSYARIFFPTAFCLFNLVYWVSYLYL", "assay": "Radioligand binding, cardiovascular-related targets"}, "[8]": {"biological_target": "T1, Adrenergic α1β (Homo sapiens, UniProt P35368)", "T1 sequence (P35368 1-520)": "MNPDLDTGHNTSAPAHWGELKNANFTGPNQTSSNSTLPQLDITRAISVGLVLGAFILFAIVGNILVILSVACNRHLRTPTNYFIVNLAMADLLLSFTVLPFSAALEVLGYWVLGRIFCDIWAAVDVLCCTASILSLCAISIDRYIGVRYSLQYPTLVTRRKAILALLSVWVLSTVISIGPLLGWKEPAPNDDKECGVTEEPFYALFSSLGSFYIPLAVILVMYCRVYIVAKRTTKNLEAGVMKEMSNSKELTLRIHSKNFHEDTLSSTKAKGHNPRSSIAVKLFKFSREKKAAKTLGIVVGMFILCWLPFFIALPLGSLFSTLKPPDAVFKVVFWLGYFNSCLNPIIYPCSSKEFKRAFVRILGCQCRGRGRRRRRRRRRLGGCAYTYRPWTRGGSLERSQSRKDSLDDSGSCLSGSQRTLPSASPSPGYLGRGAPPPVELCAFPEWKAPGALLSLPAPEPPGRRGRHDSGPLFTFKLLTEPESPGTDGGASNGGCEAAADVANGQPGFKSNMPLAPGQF", "assay": "Radioligand binding, cardiovascular-related targets"}, "[9]": {"biological_target": "ACE", "sequence (P22303 32-614, species assumed)": "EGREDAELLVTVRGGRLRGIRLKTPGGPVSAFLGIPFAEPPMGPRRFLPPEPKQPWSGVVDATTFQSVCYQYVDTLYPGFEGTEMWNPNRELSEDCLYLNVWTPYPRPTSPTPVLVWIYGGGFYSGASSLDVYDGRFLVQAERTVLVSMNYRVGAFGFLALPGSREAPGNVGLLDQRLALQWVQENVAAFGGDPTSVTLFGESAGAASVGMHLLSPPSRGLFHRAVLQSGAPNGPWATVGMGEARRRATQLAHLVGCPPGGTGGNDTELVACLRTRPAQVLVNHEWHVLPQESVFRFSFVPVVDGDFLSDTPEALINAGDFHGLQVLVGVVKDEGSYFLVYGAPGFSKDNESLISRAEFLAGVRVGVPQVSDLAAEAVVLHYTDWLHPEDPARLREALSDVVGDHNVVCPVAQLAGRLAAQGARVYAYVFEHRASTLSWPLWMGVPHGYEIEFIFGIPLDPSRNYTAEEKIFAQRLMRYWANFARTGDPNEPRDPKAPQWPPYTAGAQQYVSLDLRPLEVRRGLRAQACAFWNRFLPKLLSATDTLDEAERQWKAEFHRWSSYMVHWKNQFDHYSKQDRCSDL", "assay": "Radioligand binding, cardiovascular-related targets"}, "[10]": {"tested_on": "dog", "conditions": "in vivo, iv, 5.9 mg/kg"}, "[11]": {"tested_on": "healthy participants and patients with T2D", "conditions": "human, in vivo", "method": "as §2, §3, §1\nIn a randomized, placebo-controlled, sequential MAD study, 40 patients with T2D were randomized to receive 2.5, 5, 15, 30, or 50 mg/day or matching placebo for 14 days. All doses were administered after consumption of a standard breakfast. […] Vital sign measurements and 12-lead ECG measurements were collected at screening, at various times throughout the study, and at discharge. Serial blood samples for pharmacokinetic analysis were collected on days 1, 7, and 14."}, "[12]": {"tested_on": "dogs", "conditions": "dog, in vivo"}, "[13]": {"tested_on": "rabbit Purkinje fibers", "conditions": "mean (SEM)"}, "[14]": {"biological_target": "T2, Muscarinic M2 (Homo sapiens, UniProt P08172)", "T2 sequence (P08172 1-466)": "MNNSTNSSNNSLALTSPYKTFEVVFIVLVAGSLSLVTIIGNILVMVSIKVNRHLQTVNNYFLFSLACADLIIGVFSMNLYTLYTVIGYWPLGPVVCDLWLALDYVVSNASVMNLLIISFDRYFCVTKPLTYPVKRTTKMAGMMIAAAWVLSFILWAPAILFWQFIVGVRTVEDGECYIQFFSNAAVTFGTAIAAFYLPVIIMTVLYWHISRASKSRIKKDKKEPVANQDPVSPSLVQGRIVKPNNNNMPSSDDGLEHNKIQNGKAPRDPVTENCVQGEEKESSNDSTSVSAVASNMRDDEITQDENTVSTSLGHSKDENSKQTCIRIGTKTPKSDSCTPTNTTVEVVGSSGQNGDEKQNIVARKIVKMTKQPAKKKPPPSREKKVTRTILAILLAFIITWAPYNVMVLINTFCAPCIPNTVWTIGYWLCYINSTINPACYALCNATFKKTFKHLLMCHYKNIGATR", "assay": "Radioligand binding, cardiovascular-related targets"}, "[15]": {"tested_on": "rat", "conditions": "in vivo, iv, 5.9 mg/kg"}, "[16]": {"biological_target": "L type Ca^2+", "assay": "Radioligand binding, cardiovascular-related targets", "conditions": "antagonism of radioligand binding; read-out: IC50 or EC50"}, "[17]": {"tested_on": "receptors, ion channels, and enzymes", "assay": "Radioligand binding panel, all targets assessed", "conditions": "10 μM"}, "[18]": {"tested_on": "rodents and non-rodents", "conditions": "in vivo, po"}, "[19]": {"biological_target": "PDE (phosphodiesterase-3)", "assay": "Radioligand binding, cardiovascular-related targets", "conditions": "antagonism of radioligand binding; read-out: IC50 or EC50"}}, "note": "Like-named read-outs stand apart in the source and are kept apart here."}
{"compound": "5-hydroxy saxagliptin", "values": [{"measurement": "concentration-dependent effect on QTcP", "setting": "[1]", "value": "no concentration-dependent effect"}, {"measurement": "dose excreted (renal excretion)", "setting": "[2]", "value": "~40", "unit": "%"}, {"measurement": "mean renal clearance versus mean GFR", "setting": "[2]", "value": "did not exceed mean GFR"}, {"measurement": "plasma exposures versus dose", "setting": "[2]", "value": "generally increased proportionally with dose"}, {"measurement": "pharmacokinetics versus dose", "setting": "[3]", "value": "appeared linear with respect to dose"}, {"measurement": "maximum plasma concentration", "setting": "[4]", "value": 0.047, "unit": "µg/mL"}]}
{"compound": "COc1c(N2C[C@@H]3CCCN[C@@H]3C2)c(F)cc2c(=O)c(C(=O)O)cn(C3CC3)c12", "note": "[moxifloxacin]", "values": [{"measurement": "maximum placebo-adjusted, time-matched change from baseline in QTcP", "setting": "[1]; 400 mg, 4 h after dosing", "value": 12.52, "unit": "ms"}, {"measurement": "one-sided lower 95% confidence bound of QTcP change at time of maximum effect", "setting": "[1]; 400 mg, 4 h after dosing", "value": 7.83, "unit": "ms"}, {"measurement": "individuals with QTcP change from baseline >30 ms", "setting": "[1]; after treatment with placebo and moxifloxacin", "value": 1}]}
{"compound": "N#C[C@@H]1C[C@@H]2C[C@@H]2N1C(=O)[C@@H](N)C12CC3CC(CC(O)(C3)C1)C2", "note": "[saxagliptin]", "values": [{"measurement": "concentration-dependent effect on QTcP", "setting": "[1]", "value": "no concentration-dependent effect"}, {"measurement": "Cmax exposure multiple of Cmax at the 5 mg oral human dose", "setting": "[5]; 3.4 mg/kg", "value": 280, "unit": "times"}, {"measurement": "adverse effects", "setting": "[5]; iv, 0.225 mg/kg", "value": "No adverse effects"}, {"measurement": "decreased blood pressure (reductions)", "setting": "[5]; iv, 3.4 mg/kg", "value": "< 40", "unit": "mmHg"}, {"measurement": "IC50", "setting": "[6]", "value": "> 30", "unit": "µM"}, {"measurement": "IC50", "setting": "[7]", "value": "> 30", "unit": "µM"}, {"measurement": "IC50", "setting": "[8]", "value": "> 30", "unit": "µM"}, {"measurement": "dose excreted (renal excretion)", "setting": "[2]; human", "value": "approximately 20%"}, {"measurement": "mean renal clearance versus mean GFR", "setting": "[2]", "value": "exceeded mean GFR"}, {"measurement": "plasma exposures versus dose", "setting": "[2]", "value": "generally increased proportionally with dose"}, {"measurement": "IC50", "setting": "[9]", "value": "> 60", "unit": "µM"}, {"measurement": "adverse effects", "setting": "[10]", "value": "no adverse effects"}, {"measurement": "effect on vital sign measurements", "setting": "[11]", "value": "no effect"}, {"measurement": "marked abnormalities in AST", "setting": "[11]", "value": "No marked abnormalities"}, {"measurement": "heart weight", "setting": "[12]", "value": "No increase"}, {"measurement": "Cmax exposure multiple of the 5 mg clinical dose", "setting": "[12]; po", "value": "≤ 750", "unit": "times"}, {"measurement": "APD50", "setting": "[13]; 3 μM", "value": "149 (24) ms"}, {"measurement": "APD50 % Change", "setting": "[13]; 3 μM", "value": "0 (0) %"}, {"measurement": "APD90", "setting": "[13]; 3 μM", "value": "235 (11) ms"}, {"measurement": "APD90 % Change", "setting": "[13]; 3 μM", "value": "2 (1) %"}, {"measurement": "Maximum upstroke velocity (Vmax)", "setting": "[13]; 3 μM", "value": "446 (15) v/s"}, {"measurement": "Maximum upstroke velocity (Vmax) % Change", "setting": "[13]; 3 μM", "value": "−5 (3) %"}, {"measurement": "Overshoot", "setting": "[13]; 3 μM", "value": "29 (4) mV"}, {"measurement": "Overshoot % Change", "setting": "[13]; 3 μM", "value": "−7 (12) %"}, {"measurement": "Resting Membrane Potential", "setting": "[13]; 3 μM", "value": "−84 (1) mV"}, {"measurement": "Resting Membrane Potential % Change", "setting": "[13]; 3 μM", "value": "0 (1) %"}, {"measurement": "APD50", "setting": "[13]; 10 μM", "value": "153 (26) ms"}, {"measurement": "APD50 % Change", "setting": "[13]; 10 μM", "value": "2 (1) %"}, {"measurement": "APD90", "setting": "[13]; 10 μM", "value": "237 (14) ms"}, {"measurement": "APD90 % Change", "setting": "[13]; 10 μM", "value": "2 (1) %"}, {"measurement": "Maximum upstroke velocity (Vmax)", "setting": "[13]; 10 μM", "value": "462 (21) v/s"}, {"measurement": "Maximum upstroke velocity (Vmax) % Change", "setting": "[13]; 10 μM", "value": "−2 (3) %"}, {"measurement": "Overshoot", "setting": "[13]; 10 μM", "value": "32 (4) mV"}, {"measurement": "Overshoot % Change", "setting": "[13]; 10 μM", "value": "1 (11) %"}, {"measurement": "Resting Membrane Potential", "setting": "[13]; 10 μM", "value": "−86 (1) mV"}, {"measurement": "Resting Membrane Potential % Change", "setting": "[13]; 10 μM", "value": "2 (2) %"}, {"measurement": "APD50", "setting": "[13]; 30 μM", "value": "152 (21) ms"}, {"measurement": "APD50 % Change", "setting": "[13]; 30 μM", "value": "3 (4) %"}, {"measurement": "APD90", "setting": "[13]; 30 μM", "value": "239 (11) ms"}, {"measurement": "APD90 % Change", "setting": "[13]; 30 μM", "value": "3 (2) %"}, {"measurement": "Maximum upstroke velocity (Vmax)", "setting": "[13]; 30 μM", "value": "437 (13) v/s"}, {"measurement": "Maximum upstroke velocity (Vmax) % Change", "setting": "[13]; 30 μM", "value": "−7 (5) %"}, {"measurement": "Overshoot", "setting": "[13]; 30 μM", "value": "29 (5) mV"}, {"measurement": "Overshoot % Change", "setting": "[13]; 30 μM", "value": "−7 (14) %"}, {"measurement": "Resting Membrane Potential", "setting": "[13]; 30 μM", "value": "−85 (2) mV"}, {"measurement": "Resting Membrane Potential % Change", "setting": "[13]; 30 μM", "value": "1 (3) %"}, {"measurement": "IC50", "setting": "[14]", "value": "> 30", "unit": "µM"}, {"measurement": "adverse effects", "setting": "[15]", "value": "no adverse effects"}, {"measurement": "IC50", "setting": "[16]", "value": "> 25", "unit": "µM"}, {"measurement": "inhibition on any targets assessed", "setting": "[17]", "value": "< 25", "unit": "%"}, {"measurement": "multiples of human exposures based on AUC", "setting": "[18]", "value": "up to 2200 times"}, {"measurement": "IC50", "setting": "[19]", "value": "> 30", "unit": "µM"}]}
